The text below walks through data of paper PMC6017957, “Synthesis, Anti-Proliferative Activity Evaluation and 3D-QSAR Study of Naphthoquinone Derivatives as Potential Anti-Colorectal Cancer Agents” (Molecules : A Journal of Synthetic Chemistry and Natural …, 2018).

The test system of data set [1] is HT-29 colorectal cancer cells. Description: MTT anti-proliferative assay against HT-29 cells. In kind it is cell-based, human. Conditions: for IC50: Homo sapiens; for Selectivity Index: SI = IC50Fibroblast/IC50HT-29cells; for Cytotoxic activity category against HT-29: classified by HT-29 IC50. The protocol: (§1) The toxicity of the thirty-six compounds was determined in vitro by means of the MTT assay. Doxorubicin, a drug widely used to treat different types of cancer, was employed as a positive control, whereas the solvent (DMSO) was used as negative control.
(§2) Test compounds were dissolved in DMSO to obtain stock solutions that were maintained as small aliquots at −20 °C. At time of drug addition, an aliquot was thawed and diluted to obtain the desired final maximum test concentration of 100 μM, with complete medium. The final percentage of DMSO in the wells was less than 1% (v/v). […] Anti-Proliferative Assay
(§3) Doxorubicin, a drug widely used to treat different types of cancer, was used as a positive control. After 48 h, the medium was removed and cells were incubated with MTT solution (0.25 mg/mL). Four hours later, the medium was carefully aspired and formazan crystals were dissolved in DMSO (100 μL). The OD550 was measured using a plate reader (Multiskan Go, Thermo Scientific, Waltham, MA, USA). […] The selectivity index (SI), was calculated as a ratio of IC50Fibroblast/IC50HT-29cells.
(§4) The results are expressed as the mean of triplicate measurements in at least two independent experiments.
(Tetrazolium dyes change colour on reduction, which living cells bring about.)

The test system of another data set is fibroblasts PCS-201-012. Description: MTT cytotoxicity assay against normal dermal fibroblasts. In kind it is cell-based. As to conditions: Fibroblast, value with 95% confidence interval, read-out: PCS-201-012 IC50 μM (95% CI). The protocol:
as §1, §2, §3, §4

Setting [2] is: HT-29, 48 h, MTT, 48 h, 0–100 µM, value with 95% confidence interval, read-out: HT-29 IC50 μM (95% CI).
The mark [3] stands for this setting: HT-29, −logIC50 against HT-29, CoMFA training and test sets, read-out: pIC50 Experimental (converted).

Read-outs that look alike come from different tables or passages of the source.

By melting point is commonly meant the temperature of the solid-liquid transition. As for `CCCCc1cc2c(o1)-c1ccccc1C(=O)C2=O` [Compound 4i, 2-Butylnaphtho[1,2-b]furan-4,5-dione], the melting point amounted to 64 °C. Also, the IC50 in data set [1] (setting [2]) was 9.16 µM. The IC50 in data set [1] (setting [3]) is 9.16 µM. Further, in data set [1], the “Selectivity Index” value is on record as 0.42 and the “Cytotoxic activity category against HT-29” value (shortened to “Cytotoxic activity category”) is recorded as “highly active”. Moreover, the IC50 with fibroblasts PCS-201-012 came out at 3.86 µM.
In turn, `C=C(C)C1(C)CC2=C(O1)c1ccccc1C(=O)C2=O` (stereo not shown) [Compound 4p, 2-Methyl-2-(prop-1-en-2-yl)-2,3-dihydronaphtho[1,2-b]furan-4,5-dione] came in with a melting point of 147 °C. Further, in data set [1] (setting [2]), the IC50 was 28.1 µM. In addition, the “Selectivity Index” value in data set [1] is 0.15. Further, the IC50 in the data set on fibroblasts PCS-201-012 is 4.19 µM.
Molecule `O=C1c2ccccc2C(=O)c2occc21` [Compound 4j, Naphtho[2,3-b]furan-4,9-dione] returned a melting point of 229.4 °C. Moreover, in data set [1] (setting [2]), the IC50 is 8.2 µM. Further, the IC50 in data set [1] (setting [3]) is 8.2 µM. Also, in data set [1], the “Selectivity Index” value turned out to be 1.01 and the “Cytotoxic activity category” value is on record as “highly active”. Moreover, the IC50 with fibroblasts PCS-201-012 stood at 8.28 µM.
Molecule `C=C(C)C1(C)CC2=C(O1)C(=O)c1ccccc1C2=O` (stereo not shown) [Compound 4o, 2-Methyl-2-(prop-1-en-2-yl)-2,3-dihydronaphtho[2,3-b]furan-4,9-dione] showed a melting point of 135 °C. For the same molecule, in data set [1] (setting [2]), the IC50 worked out at 25.8 µM. Moreover, in the data set on fibroblasts PCS-201-012, the IC50 was 47.9 µM.
`CCc1cc2c(o1)-c1ccccc1C(=O)C2=O` [Compound 4h, 2-Ethylnaphtho[1,2-b]furan-4,5-dione] came in with a melting point of 136 °C. Further, the IC50 in data set [1] (setting [2]) came out at 13.7 µM. Also, in data set [1] (setting [3]), the IC50 was 13.7 µM. Moreover, in data set [1], the “Selectivity Index” value was found to be 0.27 and the “Cytotoxic activity category” value is given as “highly active”. The IC50 in the data set with fibroblasts PCS-201-012 was 3.68 µM.
Consider `CCc1[nH]c2c(c1CC)C(=O)c1ccccc1C2=O` [Compound 2d, 2,3-Diethyl-1H-benzo[f]indole-4,9-dione], for which the melting point lay in the range of 205 to 209 °C. In data set [1] (setting [2]), the IC50 was 68.7 µM. The IC50 in data set [1] (setting [3]) is 68.7 µM. Moreover, in data set [1], the “Selectivity Index” value is reported as 0.75. The IC50 with fibroblasts PCS-201-012 stood at 51.5 µM.
`COC1(C(C)=O)CC2=C(O1)C(=O)c1ccccc1C2=O` (stereo not shown) [Compound 4l, 2-Acetyl-2-methoxy-2,3-dihydronaphtho[2,3-b]furan-4,9-dione] showed a melting point of 145 °C. In addition, in data set [1] (setting [2]), the IC50 turned out to be 34.9 µM. In data set [1], the “Selectivity Index” value was found to be 0.37. For the same molecule, the IC50 with fibroblasts PCS-201-012 turned out to be 12.9 µM.
